# Data as given in EP4095134A1, “POLYCYCLIC COMPOUNDS FOR THE TREATMENT OF NEUROLOGICAL INDICATIONS” (UCL Business Ltd, priority 2021, dated 2022).
# pIC50: −log10 of the molar value.
# Target: T1, P2Y1 receptor (Homo sapiens, UniProt P47900)
# T1 construct: expressed in transfected cells
# Assay: P2Y1 IP1 accumulation HTRF assay, antagonism of agonist MRS2365 in stably transfected cells
# Format: cell-based
# Settings: racemic; 5nM MRS2365; values rounded to nearest whole number; N >= 4
# Protocol: IC50 values were determined using a cell based assay in stably transfected cells overexpressing the P2Y1 receptor. The assay system is a […] (HTRF) assay measuring accumulation of the intracellular messenger inositol monophosphate (IP1), generated intracellularly following activation of P2Y1. Activity of test compounds was generated by measuring antagonism of the increase in IP1 generated by addition of a selective P2Y1 agonist, MRS2365.
# P2Y1 overexpressing cells were maintained in T175 flasks. The day before the assay, these cells were split and 20µl cell suspension transferred to each well of white 384-well assay plates at a cell density of 0.5x10^6 cells/mL. Plates were pulse centrifuged, then incubated overnight at 37°C / 5% CO2 prior to assay.
# On day of assay, medium was removed from cells and replaced with stimulation buffer. Compounds were prepared in 100% DMSO for addition to cells using the Tecan D300e digital dispenser; compounds were prepared in cassette heads and added directly to wells in the required concentration range, to give a 10-point concentration response curve from 10µM with semi-log dilutions and a final DMSO concentration of 0.1%. Positive control antagonist curves with standard compounds were included on each plate. Plates were incubated with antagonists for 1 hour prior to addition of 5nM of the agonist MRS2365, dispensed using a Bravo liquid handler. Following agonist addition, plates were incubated for 60 minutes prior to assay. Both incubations were carried out at 37°C / 5% CO2.
# For the assay, IP1 accumulation was quantified using the IPOne kit according to manufacturer's instructions. In short, a standard curve was prepared for IP 1 quantification, and cells lysed using kit lysis buffer. Assay reagents were added to the lysates, and incubated for 1 hour at room temperature without spinning or shaking. Plates were analysed on a BMG Pherastar plate reader, and IP1 signal generated in cells interpolated from the standard curve.
# For all reported results, N is greater than or equal to 4. An individual N refers to one assay run with a single weighing of compound. A minimum of two assay runs were performed for each of two independent weighings of compound. Results (racemic)
# T1 sequence (P47900 whole entry): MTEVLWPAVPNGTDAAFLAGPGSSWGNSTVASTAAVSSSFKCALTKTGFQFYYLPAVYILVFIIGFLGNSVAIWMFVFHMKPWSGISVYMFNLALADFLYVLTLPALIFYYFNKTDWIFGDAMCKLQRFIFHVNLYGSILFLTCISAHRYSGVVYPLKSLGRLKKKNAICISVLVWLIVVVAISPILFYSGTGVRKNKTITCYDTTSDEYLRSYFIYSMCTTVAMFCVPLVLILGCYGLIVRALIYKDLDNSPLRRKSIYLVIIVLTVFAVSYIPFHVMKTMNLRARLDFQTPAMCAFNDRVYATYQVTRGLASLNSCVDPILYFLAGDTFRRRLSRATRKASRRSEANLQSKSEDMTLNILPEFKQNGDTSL
row,SMILES,pIC50
1,Cc1ccc(NC(=O)Nc2ccc(C(C)C)cc2)c(Oc2ccccc2C2(C(F)(F)F)CCO2)n1 (racemic) [S1],7.70
2,Cc1ccc(NC(=O)Nc2ccc(OC(F)(F)F)cc2)c(Oc2ccccc2C2(C(F)(F)F)CCN2C)n1 (racemic) [S6],7.30
3,"Cc1ccc(NC(=O)Nc2ccc(OC(F)(F)F)cc2)c(Oc2ccccc2C2(C(F)(F)F)CCO2)n1 (racemic) [S7, 1-(6-methyl-2-(2-(2-(trifluoromethyl)oxetan-2-yl)phenoxy)pyridin-3-yl)-3-(4-(trifluoromethoxy)phenyl)urea]",7.26
4,O=C(Nc1ccc(OC(F)(F)F)cc1)Nc1cccnc1Oc1ccccc1C1(C(F)(F)F)CCN1Cc1ccccc1 (racemic) [S8],7.19
5,"O=C(Nc1ccc(OC(F)(F)F)cc1)Nc1cccnc1Oc1ccccc1C1(C(F)(F)F)CCO1 (racemic) [S11, 1-(4-(trifluoromethoxy)phenyl)-3-(2-(2-(2-(trifluoromethyl)oxetan-2-yl)phenoxy)pyridin-3-yl)urea]",7.08
6,"O=C(Nc1ccc(S(F)(F)(F)(F)F)cc1F)Nc1cccnc1Oc1ccccc1C1(C(F)(F)F)CCO1 (racemic) [S13, 1-(2-fluoro-4-(pentafluoro-λ^6-sulfaneyl)phenyl)-3-(2-(2-(2-(trifluoromethyl)oxetan-2-yl)phenoxy)pyridin-3-yl)urea]",7.03
7,"Cc1ccc(NC(=O)Nc2ccc(OC3CC(F)(F)C3)cc2)c(Oc2ccccc2C2(C(F)(F)F)CCO2)n1 (racemic) [S15, 1-(4-(3,3-difluorocyclobutoxy)phenyl)-3-(6-methyl-2-(2-(2-(trifluoromethyl)oxetan-2-yl)phenoxy)pyridin-3-yl)urea]",6.98
8,"Cc1ccc(NC(=O)Nc2ccc(Cl)c(F)c2)c(Oc2ccccc2C2(C(F)(F)F)CCO2)n1 (racemic) [S17, 1-(4-chloro-3-fluorophenyl)-3-(6-methyl-2-(2-(2-(trifluoromethyl)oxetan-2-yl)phenoxy)pyridin-3-yl)urea]",6.94
9,"Cc1ccc(NC(=O)Nc2ccc(OC(F)(F)F)cc2)c(Oc2ccc(F)cc2C2(C(F)(F)F)CCO2)n1 (racemic) [S19, 1-(2-(4-fluoro-2-(2-(trifluoromethyl)oxetan-2-yl)phenoxy)-6-methylpyridin-3-yl)-3-(4-(trifluoromethoxy)phenyl)urea]",6.92
10,"O=C(Nc1ccc(OC(F)(F)F)cc1)Nc1ccc(Cl)nc1Oc1ccccc1C1(C(F)(F)F)CCO1 (racemic) [S20, 1-(6-chloro-2-(2-(2-(trifluoromethyl)oxetan-2-yl)phenoxy)pyridin-3-yl)-3-(4-(trifluoromethoxy)phenyl)urea]",6.90
11,"O=C(Nc1ccc(OC(F)(F)F)cc1F)Nc1cccnc1Oc1ccc(F)cc1C1(C(F)(F)F)CCO1 (racemic) [S21, 1-(2-(4-fluoro-2-(2-(trifluoromethyl)oxetan-2-yl)phenoxy)pyridin-3-yl)-3-(2-fluoro-4-(trifluoromethoxy)phenyl)urea]",6.85
12,"O=C(Nc1ccc(Cl)cc1)Nc1ccc(Cl)nc1Oc1ccccc1C1(C(F)(F)F)CCO1 (racemic) [S24, 1-(6-chloro-2-(2-(2-(trifluoromethyl)oxetan-2-yl)phenoxy)pyridin-3-yl)-3-(4-chlorophenyl)urea]",6.84
13,"O=C(Nc1ccc(S(F)(F)(F)(F)F)cc1)Nc1cccnc1Oc1ccccc1C1(C(F)(F)F)CCO1 (racemic) [S28, 1-(4-(pentafluoro-λ^6-sulfaneyl)phenyl)-3-(2-(2-(2-(trifluoromethyl)oxetan-2-yl)phenoxy)pyridin-3-yl)urea]",6.80
14,"O=C(Nc1ccc(Cl)cc1F)Nc1cccnc1Oc1ccccc1C1(C(F)(F)F)CCO1 (racemic) [S29, 1-(4-chloro-2-fluorophenyl)-3-(2-(2-(2-(trifluoromethyl)oxetan-2-yl)phenoxy)pyridin-3-yl)urea]",6.78
15,"O=C(Nc1ccc(Cl)cc1F)Nc1cccnc1Oc1ccc(F)cc1C1(C(F)(F)F)CCO1 (racemic) [S30, 1-(4-chloro-2-fluorophenyl)-3-(2-(4-fluoro-2-(2-(trifluoromethyl)oxetan-2-yl)phenoxy)pyridin-3-yl)urea]",6.78
16,O=C(Nc1ccc(OC(F)(F)F)cc1)Nc1cccnc1Oc1cc(F)ccc1C1(C(F)(F)F)CCO1 (racemic) [S31],6.77
17,O=C(Nc1ccc(OC(F)(F)F)cc1)Nc1cccnc1Oc1ccc(F)cc1C1(C(F)(F)F)CCO1 (racemic) [S33],6.75

# Continued, values first:
row,pIC50,SMILES
1,7.48,"Cc1ccc(NC(=O)Nc2ccc(OC(F)(F)F)cc2F)c(Oc2ccccc2C2(C(F)(F)F)CCO2)n1 (racemic) [S2, 1-(2-fluoro-4-(trifluoromethoxy)phenyl)-3-(6-methyl-2-(2-(2-(trifluoromethyl)oxetan-2-yl)phenoxy)pyridin-3-yl)urea]"
2,7.40,Cc1ccc(NC(=O)Nc2ccc(OC(F)(F)F)cc2F)c(Oc2ccccc2C2(C(F)(F)F)CCN2C)n1 (racemic) [S3]
3,7.37,"Cc1ccc(NC(=O)Nc2ccc(Cl)cc2F)c(Oc2ccccc2C2(C(F)(F)F)CCO2)n1 (racemic) [S4, 1-(4-chloro-2-fluorophenyl)-3-(6-methyl-2-(2-(2-(trifluoromethyl)oxetan-2-yl)phenoxy)pyridin-3-yl)urea]"
4,7.37,CCN1CCC1(c1ccccc1Oc1ncccc1NC(=O)Nc1ccc(OC(F)(F)F)cc1)C(F)(F)F (racemic) [S5]
5,7.18,"O=C(Nc1ccc(OC(F)(F)F)cc1F)Nc1cccnc1Oc1ccccc1C1(C(F)(F)F)CCO1 (racemic) [S9, 1-(2-fluoro-4-(trifluoromethoxy)phenyl)-3-(2-(2-(2-(trifluoromethyl)oxetan-2-yl)phenoxy)pyridin-3-yl)urea]"
6,7.11,CN1CCC1(c1ccccc1Oc1ncccc1NC(=O)Nc1ccc(Cl)cc1F)C(F)(F)F (racemic) [S10]
7,7.06,O=C(Nc1ccc(OC(F)(F)F)cc1F)Nc1cccnc1Oc1cc(F)ccc1C1(C(F)(F)F)CCO1 (racemic) [S12]
8,7.03,"O=C(Nc1ccc(OC(F)(F)F)cc1F)Nc1ccc(Cl)nc1Oc1ccccc1C1(C(F)(F)F)CCO1 (racemic) [S14, 1-(6-chloro-2-(2-(2-(trifluoromethyl)oxetan-2-yl)phenoxy)pyridin-3-yl)-3-(2-fluoro-4-(trifluoromethoxy)phenyl)urea]"
9,6.97,"Cc1ccc(NC(=O)Nc2ccc(Cl)cc2F)c(Oc2ccc(F)cc2C2(C(F)(F)F)CCO2)n1 (racemic) [S16, 1-(4-chloro-2-fluorophenyl)-3-(2-(4-fluoro-2-(2-(trifluoromethyl)oxetan-2-yl)phenoxy)-6-methylpyridin-3-yl)urea]"
10,6.93,"Cc1ccc(NC(=O)Nc2ccc(Cl)cc2)c(Oc2ccccc2C2(C(F)(F)F)CCO2)n1 (racemic) [S18, 1-(4-chlorophenyl)-3-(6-methyl-2-(2-(2-(trifluoromethyl)oxetan-2-yl)phenoxy)pyridin-3-yl)urea]"
11,6.85,"O=C(Nc1ccc(Cl)cc1F)Nc1ccc(Cl)nc1Oc1ccccc1C1(C(F)(F)F)CCO1 (racemic) [S22, 1-(6-chloro-2-(2-(2-(trifluoromethyl)oxetan-2-yl)phenoxy)pyridin-3-yl)-3-(4-chloro-2-fluorophenyl)urea]"
12,6.84,"O=C(Nc1ccc(OC(F)(F)F)c(F)c1)Nc1cccnc1Oc1ccccc1C1(C(F)(F)F)CCO1 (racemic) [S23, 1-(3-fluoro-4-(trifluoromethoxy)phenyl)-3-(2-(2-(2-(trifluoromethyl)oxetan-2-yl)phenoxy)pyridin-3-yl)urea]"
13,6.84,"O=C(Nc1ccc(C(F)(F)F)cc1)Nc1cccnc1Oc1ccccc1C1(C(F)(F)F)CCO1 (racemic) [S25, 1-(2-(2-(2-(trifluoromethyl)oxetan-2-yl)phenoxy)pyridin-3-yl)-3-(4-(trifluoromethyl)phenyl)urea]"
14,6.82,"O=C(Nc1ccc(OC(F)(F)F)cc1)Nc1cccnc1Oc1ccc(F)cc1C1(C(F)(F)F)CCO1 (racemic) [S26, 1-(2-(4-fluoro-2-(2-(trifluoromethyl)oxetan-2-yl)phenoxy)pyridin-3-yl)-3-(4-(trifluoromethoxy)phenyl)urea]"
15,6.82,"O=C(Nc1ccc(Cl)cc1)Nc1cccnc1Oc1ccccc1C1(C(F)(F)F)CCO1 (racemic) [S27, 1-(4-chlorophenyl)-3-(2-(2-(2-(trifluoromethyl)oxetan-2-yl)phenoxy)pyridin-3-yl)urea]"
16,6.77,"Cc1ccc(NC(=O)Nc2ccc(Cl)cc2)c(Oc2ccc(F)cc2C2(C(F)(F)F)CCO2)n1 (racemic) [S32, 1-(4-chlorophenyl)-3-(2-(4-fluoro-2-(2-(trifluoromethyl)oxetan-2-yl)phenoxy)-6-methylpyridin-3-yl)urea]"
17,6.71,"Cc1ccc(NC(=O)Nc2nc3ccc(C)nc3s2)c(Oc2ccc(F)cc2C2(C(F)(F)F)CCO2)n1 (racemic) [S34, 1-(2-(4-fluoro-2-(2-(trifluoromethyl)oxetan-2-yl)phenoxy)-6-methylpyridin-3-yl)-3-(5-methylthiazolo[5,4-b]pyridin-2-yl)urea]"
18,6.71,CN1CCC1(c1ccccc1Oc1ncccc1NC(=O)Nc1ccc(OC(F)(F)F)cc1)C(F)F (racemic) [S35]
